{
  "source": "paper PMC4535455",
  "about": "(International journal of pharmaceutics, 2015)",
  "key": {"[1]": {"tested_on": "peptide transporters", "experiment": "[3H]-GlySar cellular uptake in MDCK-MDR1 cells", "type": "cell-based", "conditions": "DPBS pH 7.4, 37 °C"}, "[2]": {"tested_on": "MDCK-WT cells", "experiment": "Cytotoxicity by LDH assay", "type": "cell-based"}, "[3]": {"experiment": "Aqueous solubility studies"}},
  "note": "Where a SMILES comes first, the peptide text is derived from it. [ ]: non-standard residue; d: D form. Sar = CNCC(=O)O",
  "data": [
    {"compound": "CN(CC(=O)O)C(=O)CN", "note": "[Gly-Sar] (H-Gly-[Sar]-OH)", "values": [
      {"measurement": "[3H]-GlySar uptake in the presence of compound (percentage of control)", "setting": "[1]; 1 mM", "value": 40, "unit": "%"},
      {"measurement": "[3H]-GlySar uptake in the presence of compound (percentage of control)", "setting": "[1]; 2 mM", "value": 30, "unit": "%"}
    ]},
    {"compound": "C[C@]12C=CC(=O)C=C1CC[C@@H]1[C@@H]2[C@@H](O)C[C@@]2(C)[C@H]1CC[C@]2(O)C(=O)CO", "note": "[prednisolone, Prednisolone]", "values": [
      {"measurement": "Cytotoxic effects (LDH release)", "setting": "[2]; 5–250 µM, 4 h", "value": "did not generate any cytotoxic effects"},
      {"measurement": "[3H]-GlySar uptake in the presence of compound (percentage of control)", "setting": "[1]; 100 µM", "value": "No significant inhibition"},
      {"measurement": "solubility at 4 h", "setting": "[3]", "value": "310 ± 30", "unit": "µg/mL"}
    ]},
    {"compound": "Triton x-100", "values": [
      {"measurement": "Cytotoxicity (LDH release)", "setting": "[2]; 1%, positive control", "value": "displayed significant cytotoxicity"},
      {"measurement": "Increase in absorbance (LDH) versus negative control", "setting": "[2]; 1%, positive control", "value": "About 5 fold"}
    ]}
  ]
}
